Laboratory results as given in patent US20190262261A1, “RADIATION SENSITIZER OR ANTI-CANCER CHEMOTHERAPY SENSITIZER” (priority 2006, published 2019).

Key:
[1] = Pain on intratumoral injection into SCCVII tumors of mice; format: in vivo, C3H/He mouse; conditions: 1 ml, 27-gage needle, pH 6.8, 0.5% hydrogen peroxide, five mice per group, tumor about 10 mm
Protocol: (1) Mouse squamous epithelium cancer cells (SCCVII tumor cells) were transplanted into the right leg of the same kind of C3H/He mouse (8-week-old female), and the following experiment was conducted when the tumor had grown to about 10 mm in diameter.
When a 27-gage thin needle was used to intratumorally inject 1 ml of physiological saline (pH 6.8) containing 0.5% hydrogen peroxide into the tumors of five mice, the mice were all observed to feel strong pain, violently resisting the injection.

[2] = Pain on subcutaneous injection in normal volunteers; format: in vivo, human; conditions: 1 ml subcutaneous, pH 6.8, 0.5% hydrogen peroxide
Protocol: (2) Based on the above results, the following experiment was conducted on five normal volunteers.
When a 27-gage thin needle was used to subcutaneously inject 1 ml of physiological saline (pH 6.8) containing 0.5% hydrogen peroxide into the inside of the left arms of five normal volunteers, all complained of severe pain limited to the injection site that lasted about 1 hour.

[3] = tested on: inoperable locally advanced malignant melanoma
Protocol: For a case of inoperable locally advanced malignant melanoma, sterilized cut cotton soaked in a hydrogen peroxide solution having a concentration of approximately 3 weight percent was used as a bolus, and irradiation by an electron beam from a linear accelerator (radiosensitization therapy) was then conducted.
Specifically, sterilized cut cotton soaked in a hydrogen peroxide solution having a concentration of approximately 3% was applied to the affected area of the locally advanced malignant melanoma as a bolus, and irradiation was conducted three times a week for four weeks, with each radiation dose amounting to 4 Gy (12 times, for a total radiation dosage of 48 Gy).

[4] = tested on: radioresistant osteosarcoma cell lines (HS-Os-1); conditions: 0.1 mM in culture solution, radiation in the order of 10 Gy; cited from earlier work

OO [hydrogen peroxide]
pain of the intratumoral injection [1]: strong pain | pain at the injection site ([2]; inside of arm, 27-gage needle, five volunteers): severe pain | duration of pain at the injection site ([2]; left arm): about 1 hour | length of malignant melanoma ([3]; 2 weeks after RT, approximately 3% solution on cut cotton as bolus, 4 Gy x 12, total 48 Gy, approximately 8 cm before radiotherapy): approximately 5 cm | tumor outcome (summary in disclosure) ([3]; approximately 3 weight percent solution as bolus, 4 Gy three times a week, total 48 Gy): disappearance of the tumor | tumor outcome ([3]; three months after termination of radiotherapy, approximately 3% solution as bolus, total 48 Gy): almost disappeared | effect on irradiated cells (reactive oxygen species, apoptosis) [4]: giving rise to apoptosis
